These compounds were tested against T1, human FSH receptor (Homo sapiens, UniProt P23945) (assay: Agonistic activity at the human FSH receptor expressed in CHO cells (CRE-luciferase reporter)). Details: CHO cells stably transfected with human FSH receptor and CRE/luciferase reporter; 4 hours incubation; pEC50 is -log EC50.
T1 construct: expressed in transfected cells; host or cells: CHO (Chinese Hamster Ovary) cells, stably transfected, cotransfected with CRE-luciferase reporter
T1 sequence (P23945 18-695): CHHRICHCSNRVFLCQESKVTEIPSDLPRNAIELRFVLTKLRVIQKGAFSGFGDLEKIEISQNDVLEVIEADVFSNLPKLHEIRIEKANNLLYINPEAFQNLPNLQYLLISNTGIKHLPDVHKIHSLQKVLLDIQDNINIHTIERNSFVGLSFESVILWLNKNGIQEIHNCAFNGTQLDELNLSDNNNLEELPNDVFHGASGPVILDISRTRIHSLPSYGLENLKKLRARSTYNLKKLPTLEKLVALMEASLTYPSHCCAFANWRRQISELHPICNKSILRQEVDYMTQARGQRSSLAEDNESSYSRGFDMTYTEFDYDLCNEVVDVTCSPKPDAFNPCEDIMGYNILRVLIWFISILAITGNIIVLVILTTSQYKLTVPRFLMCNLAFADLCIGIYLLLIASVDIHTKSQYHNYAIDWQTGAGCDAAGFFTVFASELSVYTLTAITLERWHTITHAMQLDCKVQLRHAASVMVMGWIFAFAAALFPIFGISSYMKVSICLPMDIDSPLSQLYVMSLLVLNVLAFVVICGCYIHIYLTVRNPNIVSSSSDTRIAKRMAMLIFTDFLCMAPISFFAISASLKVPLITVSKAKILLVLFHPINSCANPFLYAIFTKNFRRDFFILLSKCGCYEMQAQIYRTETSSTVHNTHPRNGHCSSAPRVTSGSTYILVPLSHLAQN
Assay type: cell-based
Text: The term EC50 means the concentration of the test compound that elicits half-maximal (50%) stimulation compared to the compound's maximally attainable effect. pEC50 is the negative log of EC50. The values can be determined e.g. in a cell line transfected with a FSH receptor gene and cotransfected with a cAMP responsive element/promoter directing the expression of a reporter gene. For the determination a software program such as MathIQ (version 2.0, ID Business Solutions Limited) can be used.
Agonistic activity of the compounds at the human FSH receptor was determined in Chinese Hamster Ovary (CHO) cells stably transfected with the human FSH receptor and cotransfected with a cAMP responsive element (CRE)/promotor directing the expression of a firefly luciferase reporter gene. Binding of the compounds to the Gs protein-coupled FSH receptor will result in an increase of cAMP, which in turn will induce an increased transactivation of the luciferase reporter. Cells (7,500 cells/well of a 384 well plate) were incubated in Dulbecco' minimal essential F12 modified medium (Invitrogen), supplemented with 1 μg/ml bovine insulin, 5 μg/ml human apo-transferrin, 80 U/ml penicillin G and 80 μg/ml streptomycin with the test compounds (concentration between 0.0316 nM and 10.0 μM) in duplicate in a humidified atmosphere (95%) at 5-7% CO2 and 37° C. The final concentration of DMSO was 1%. After 4 hours of incubation, plates were allowed to adjust to room temperature for 1 hour. Then, Luclite (PerkinElmer) solution was added to the wells and cells were allowed to lyse for at least 1 hour at room temperature. Subsequently, luciferase activity was measured in a luminescence counter. The signal is expressed as counts per second (cps). The EC50 (concentration of the test compound that elicits half-maximal (50%) luciferase stimulation compared to the compound's maximally attainable effect) and efficacy values (maximal effect of the test compound as percentage of the maximal effect of recombinant human FSH) of the compounds were determined using the software program MathIQ (version 2.0, ID Business Solutions Limited). pEC50 data (pEC50 is −log EC50) are indicated at the synthesis examples.

Row | hFSHRago (CHO luc) pEC50 | SMILES
1 | 8.51 | COc1cc2c(cc1-c1cccnc1)-c1c(-c3cncs3)c3c(n1CC2)C(=O)N(C(C)(C)C)CCCC3 [Compound 11j, 9-tert-butyl-3-methoxy-2-pyridin-3-yl-14-(1,3-thiazol-5-yl)-5,6,10,11,12,13-hexahydroazocino[4′,3′:4,5]pyrrolo[2,1-a]isoquinolin-8(9H)-one]

Same assay, conditions: CHO cells stably transfected with human FSH receptor and CRE/luciferase reporter; 4 hours incubation; pEC50 is -log EC50; read-out: hFSHRago (CHO luc) pEC50 (converted)

Row | EC50 | SMILES
2 | 5.37 nM | COc1cc2c(cc1C(=O)N(C)CCO)-c1c(-c3cccs3)c3c(n1CC2)C(=O)N(C(C)(C)C)CCCC3 [Compound 26c8, 9-tert-butyl-2-(N-2-hydroxyethyl,N-methylaminocarbonyl)-3-methoxy-14-(thiophen-2-yl)-5,6,10,11,12,13-hexahydroazocino[4′,3′:4,5]pyrrolo[2,1-a]isoquinolin-8(9H)-one]
3 | 1.78 nM | COc1cc2c(cc1C#N)-c1c(-c3cccs3)c3c(n1CC2)C(=O)N(C(C)(C)C)CCCC3 [Compound 20h, 9-tert-butyl-14-(thien-2-yl)-3-methoxy-5,6,10,11,12,13-hexahydroazocino[4′,3′:4,5]pyrrolo[2,1-a]isoquinolin-8(9H)-one-2-carbonitrile]
4 | 37.2 nM | COC(=O)[C@@H]1CCCN1C(=O)c1cc2c(cc1OC)CCn1c3c(c(-c4cccs4)c1-2)CCCCN(C(C)(C)C)C3=O [Compound 26c2, (S)-9-tert-butyl-3-methoxy-14-(thiophen-2-yl)-5,6,10,11,12,13-hexahydroazocino[4′,3′:4,5]pyrrolo[2,1-a]isoquinolin-8(9H)-one-2-carbonyl(1-pyrrolidinyl-2-carboxylate) methyl ester]
5 | 0.427 nM | COc1cc2c(cc1C(=O)NCCO)-c1c(-c3cccs3)c3c(n1CC2)C(=O)N(C(C)(C)C)CCCC3 [Compound 26c7, 9-tert-butyl-2-(2-hydroxyethylaminocarbonyl)-3-methoxy-14-(thiophen-2-yl)-5,6,10,11,12,13-hexahydroazocino[4′,3′:4,5]pyrrolo[2,1-a]isoquinolin-8(9H)-one]

The next lines start with the compound.

Row | SMILES | EC50
6 | COc1cc2c(cc1OC(C)C)-c1c(-c3cccnc3)c3c(n1CC2)C(=O)N(C(C)(C)C)CCOC3 [Compound 18e, 9-tert-butyl-3-methoxy-2-isopropoxy-14-pyridin-3-yl-5,6,10,11-tetrahydro-9H-[1,4]oxazocino[7′,6′:4,5]pyrrolo[2,1-a]isoquinolin-8(13H)-one] | 63.1 nM
7 | COc1cc2c(cc1-c1cccnc1)-c1c(-c3ncco3)c3c(n1CC2)C(=O)N(C(C)(C)C)CCC3 [Compound 13f] | 15.8 nM
8 | COc1cc2c(cc1-c1ncco1)-c1c(-c3cncs3)c3c(n1CC2)C(=O)N(C(C)(C)C)CCCC3 [Compound 17j, 9-tert-butyl-3-methoxy-2-(1,3-oxazol-2-yl)-14-(1,3-thiazol-5-yl)-5,6,10,11,12,13-hexahydroazocino[4′,3′:4,5]pyrrolo[2,1-a]isoquinolin-8(9H)-one] | 0.977 nM
9 | COc1cc2c(cc1-c1cccnc1)-c1c(Cl)c3c(n1CC2)C(=O)N(C(C)(C)C)CCCC3 [Compound 19f, 9-tert-butyl-3-methoxy-2-pyridin-3-yl-14-chloro-5,6,10,11,12,13-hexahydroazocino[4′,3′:4,5]pyrrolo[2,1-a]isoquinolin-8(9H)-one] | 12.3 nM
10 | COc1cc2c(cc1-c1cnccn1)-c1c(-c3cccs3)c3c(n1CC2)C(=O)N(C(C)(C)C)CCCOC3 [Compound 7m, 9-tert-butyl-3-methoxy-2-pyrazin-2-yl-15-(2-thienyl)-5,6,9,10,11,12-hexahydro[1,5]oxazonino[8′,7′:4,5]pyrrolo[2,1-a]isoquinolin-8(14H)-one] | 17.8 nM
11 | COc1cc2c(cc1-c1c(C)nn(C)c1C)-c1c(-c3cccs3)c3c(n1CC2)C(=O)N(C(C)C)CCN(C(=O)CCC(F)(F)F)C3 [Compound 10t, 9-isopropyl-3-methoxy-14-(2-thienyl)-12-(4,4,4-trifluorobutanoyl)-2-(1,3,5-trimethyl-1H-pyrazol-4-yl)-5,6,10,11,12,13-hexahydro[1,4]diazocino[6′,7′:4,5]pyrrolo[2,1-a]isoquinolin-8(9H)-one] | 977 nM
